Source: patent publication EP0779296A2, “D-alpha-aminoalkanoyl-(S)-N-alpha-alkylbenzyl amides useful as intermediates for artificial sweeteners” (THE COCA-COLA COMPANY, priority 1992, dated 1994)
Where a SMILES comes first, the peptide text is derived from it.

Test: not given
Settings: value adopted for the reference solution; cited from earlier work

SMILES | sweetness of aspartame (adopted reference value)
COC(=O)[C@H](Cc1ccccc1)NC(=O)[C@@H](N)CC(=O)O [aspartame] (H-Asp-Phe-OMe) | 180 times sucrose

Test: Sweetness potency: four tasters compare dilutions of the test compound with a 200 ppm aspartame solution
Assay type: in vivo
Settings: against 200 ppm aspartame solution; aspartame taken as 180 times sucrose
Protocol: The sweetness potency was determined by having four tasters compare the sweetness of various dilutions of the test compound with a 200 ppm equivalent solution of aspartame, wherein the sweetness of aspartame was taken to be 180 times sucrose. […]

SMILES | Sweetness
C[C@H](NC(=O)[C@@H](C)NC(=O)[C@@H](N)CC(=O)O)c1ccccc1 [Example 2, L-aspartyl-D-alanine-N-(S)-α-methyl-benzylamide] | 180 times sucrose
CC[C@@H](NC(=O)[C@@H](N)CC(=O)O)C(=O)N[C@@H](C)c1ccccc1 [Example 3, L-aspartyl-D-α-aminobutyric-acid N-(S)-α-methylbenzyl amide] | 360 times sucrose
CCC[C@@H](NC(=O)[C@@H](N)CC(=O)O)C(=O)N[C@@H](C)c1ccccc1 [Example 4, L-aspartyl-D-α-aminopentanoic-acid-N-(S)-α-methylbenzyl amide] | 90 times sucrose
CC(C)[C@@H](NC(=O)[C@@H](N)CC(=O)O)C(=O)N[C@@H](C)c1ccccc1 [Example 5, L-aspartyl-D-valine-N-(S)-α-methylbenzyl amide] | 540 times sucrose
C[C@H](NC(=O)[C@H](NC(=O)[C@@H](N)CC(=O)O)c1ccccc1)c1ccccc1 [Example 6, L-aspartyl-D-phenylglycine-N-(S)-α-methylbenzyl amide] | 270 times sucrose
C[C@@H](NC(=O)[C@@H](N)CC(=O)O)C(=O)N[C@H](C)c1ccccc1 [Example 7, L-aspartyl-D-alanine-N-(R)-α-methylbenzyl amide] | less than 10 times sucrose
CCC(NC(=O)[C@@H](C)NC(=O)[C@@H](N)CC(=O)O)c1ccccc1 (stereo partly drawn) [Example 8, L-aspartyl-D-alanine-N-(R,S)-α-ethylbenzyl amide] | 270 times sucrose
CC(C)C(NC(=O)[C@@H](C)NC(=O)[C@@H](N)CC(=O)O)c1ccccc1 (stereo partly drawn) [Example 9, L-aspartyl-D-alanine-N-(R,S)-α-isopropylbenzyl amide] | 180 times sucrose
C[C@@H](NC(=O)[C@@H](N)CC(=O)O)C(=O)NC(c1ccccc1)C(C)(C)C (stereo partly drawn) [Example 10, L-aspartyl-D-alanine-N-(R,S)-α-t-butylbenzyl amide] | 150 times sucrose
CCCC(NC(=O)[C@@H](C)NC(=O)[C@@H](N)CC(=O)O)c1ccccc1 (stereo partly drawn) [Example 11, L-aspartyl-D-alanine-N-(R,S)-α-n-propylbenzyl amide] | 90 times sucrose
C[C@@H](NC(=O)[C@@H](N)CC(=O)O)C(=O)NC(c1ccccc1)c1ccccc1 [Example 12, L-aspartyl-D-alanine-N-α-phenyl benzyl amide] | 180 times sucrose
C[C@@H](NC(=O)[C@@H](N)CC(=O)O)C(=O)NC(c1ccccc1)C1CC1 (stereo partly drawn) [Example 13, L-aspartyl-D-alanine-N-α-cyclopropyl benzyl amide] | 1,080 times sucrose
CC[C@H](NC(=O)[C@@H](CC)NC(=O)[C@@H](N)CC(=O)O)c1ccccc1 [Example 14, L-aspartyl-D-α-aminobutyric acid-N-(S)-α-ethylbenzyl amide] | 2500 x Sucrose
CC[C@H](NC(=O)[C@H](NC(=O)[C@@H](N)CC(=O)O)C(C)C)c1ccccc1 [Example 15, L-aspartyl-D-valine-N-(S)-α-ethylbenzyl amide] | 1500 times sucrose

Same assay, conditions: against 200 ppm aspartame solution; aspartame taken as 180 times sucrose; listed as L-aspartyl-D-α-aminobutyric-acid-(S)-N-α-alkylbenzyl amide

SMILES | Sweetness
CC[C@H](NC(=O)[C@@H](CC)NC(=O)[C@@H](N)CC(=O)O)c1ccccc1 [Example 14, L-aspartyl-D-α-aminobutyric acid-N-(S)-α-ethylbenzyl amide] | 2500 times sucrose

Test: not given
Settings: disclosed by Zeng et al.; cited from earlier work

SMILES | sweetness potency
Cc1cccc(C)c1NC(=O)[C@@H](C)NC(=O)[C@@H](N)CC(=O)O [2,6-dimethyl-aniline amide] | 500 times the sweetness of sucrose

Test: not given
Settings: reported in U.S. Patent No. 4,411,925; cited from earlier work

SMILES | sweetness potency (SP)
C[C@@H](NC(=O)[C@@H](N)CC(=O)O)C(=O)NC(C1CC1)C(C)(C)C (mixture of isomers) [L-aspartyl-D-alanine amide of (+/-) t-butyl-cyclopropyl methylamine] | 1200 times sucrose
CC[C@@H](NC(=O)[C@@H](N)CC(=O)O)C(=O)NC(C1CC1)C1CC1 [R = ethyl] | 500 times sucrose
CC(C)[C@@H](NC(=O)[C@@H](N)CC(=O)O)C(=O)NC(C1CC1)C1CC1 [R = isopropyl] | 110 times sucrose
C[C@@H](NC(=O)[C@@H](N)CC(=O)O)C(=O)NC(C1CC1)C1CC1 [R = methyl] | 1200 times sucrose
